Assay results published in publication PMC6200594 (ACS infectious diseases, 2018).
Like-named read-outs stand apart in the source and are kept apart here.

What was measured:
[1] = tested on: bacterial cell membrane disruption / depolarization; assay: Membrane depolarization assay; format: cell-based; details: DiSC3 release
[2] = tested on: bacterial cell membrane permeability; details: PI; cited from earlier work
[3] = tested on: bacterial cell membrane disruption / depolarization; details: DiSC3; cited from earlier work
Ac2K-D-Ala-D-Lac = details: remodeled peptidoglycan precursor; cited from earlier work

Substance	membrane depolarization activity (in words) [1]	induced cell membrane permeability (in words) [2]	membrane depolarization activity (in words) [3]	decrease in binding affinity on replacing ᴅ-Ala-ᴅ-Ala with ᴅ-Ala-ᴅ-Lac (Ac2K-D-Ala-D-Lac)
CBP-vancomycin [compound 3]	also observed	–	–	–
oritavancin	–	activity in both assays has been observed	observed	–
telavancin	–	activity in both assays has been observed	observed	–
vancomycin [compound 1]	–	–	–	1,000 fold
